Measured values as given in patent US8609849B1, “Hydroxylated sulfamides exhibiting neuroprotective action and their method of use” (Fox Chase Chemical Diversity Center, Inc., priority 2010, dated 2013).

Key:
Hippocampal Cultures [1] = assay: Neuroprotection from glutamate (excitotoxicity), CFDA assay; format: cell-based; details: Rattus norvegicus, read-out: NP from Glutamate CFDA EC50
From the text: (§1) Cell cultures: All compounds are screened with dissociated hippocampal cultures derived from embryonic day 18 rats as the primary test system. With this preparation, primary neurons are used to test for toxicity as well as neuroprotection in a highly relevant experimental system to epilepsy. In brief, hippocampal tissue are obtained commercially through Brain Bits (Springfield, Ill.) and cultures prepared as previously described by Brewer (Brewer, G. J. Serum-free B27/neurobasal medium supports differentiated growth of neurons from the striatum, substantia nigra, septum, cerebral cortex, cerebellum and dentate gyms, J. Neurosci. Res. 1995, 42, 674-683.). The hippocampal neurons are platted at low density (10,000 cell/well) in a 96-well format and maintained in serum-free medium consisting of Neurobasal Medium supplemented with B27 and GlutaMAX (Gibco). Pre-coated poly-L-lysine coated plates are used because of the preferential adherence and survival of hippocampal neurons on this matrix support.
(§2) Potent neuroprotection is the distinguishing characteristic that separates this program's anticonvulsants from all other commercial drugs for epilepsy. The experimental details and the rationale for the implemented assays are essential in differentiating these compounds from that of others. The central objective of all neuroprotective assays was their relevancy to excitotoxicity and oxidative stress related to epilepsy. Both the amount of glutamate and hydrogen peroxide used in the assays, as well as the time of treatment and duration of the experiment, were designed to be relevant to epilepsy. Further, all time parameters employed in these studies were empirically determined to be within the limits of reversible toxic events, yet using amounts of glutamate and hydrogen peroxide that were relevant to the disease. In regard to glutamate toxicity, a critical feature was the duration of treatment of the hippocampal neurons. The rational for using a short 5 min treatment with glutamate was based on the observation of Randall and Thayer (Randall, R. D.; Thayer, S. A. Glutamate-induced calcium transient triggers calcium overload and neurotoxicity in rat hippocampal neurons, J. Neurosci. 1992, 12, 1882-1895). […] The rationale is that this intense burst of glutamate and resulting calcium overload is relevant to seizures and therefore was important data to capture in the screening assay. The amount of glutamate (30 μM) employed in our screening was based on the basal levels of glutamate observed in microdialysis measurements of hippocampus from epileptogenic patients (Cavus et al. Decreased hippocampal volume on MRI is associated with increased extracellular glutamate in epilepsy patients, Epilepsia, 2008, 49, 1358-1366.). In regard to hydrogen peroxide, the amount employed (10 μM) was detected in the hippocampus of rats after kainate-induced status epilepticus (Jarrett et. al., Mitochondrial DNA damage and impaired base excision repair during epileptogenesis, Neurobiol. Dis. 2008, 30, 130-138). To produce neural damage and death with these amounts of glutamate and hydrogen peroxide, the cultures were changed to a medium with significant depletion of antioxidant components in the defined medium supplement B-27 just prior to treatment with the compounds. This was performed to obtain a significant and reproducible toxic signal in the hippocampal neurons and because loss of antioxidant control may be a component of epileptogenesis (Waldbaum and Patel, Mitochondria, oxidative stress and temporal lobe epilepsy, Epilepsy Res. 2010 88, 23-45.; Wu et al., Mitochondrial DNA mutation-elicited oxidative stress, oxidative damage, and altered gene expression in cultured cells of patients with MERRF syndrome, Mol. Neurobiol. 2010, 41, 256-266.). Neuroprotection studies with hydrogen peroxide were conducted with cultures that were between day 12 and day 18. Studies of neuroprotection glutamate were conducted between day 19 and day 22. […]

Hippocampal Cultures [2] = assay: Neuroprotection from hydrogen peroxide (oxidative stress), propidium iodide assay; format: cell-based; details: Rattus norvegicus, read-out: NP from HP PI EC50
From the text: as §1, §2

Hippocampal Cultures [3] = assay: Neuroprotection from hydrogen peroxide (oxidative stress), CFDA assay; format: cell-based; details: Rattus norvegicus, read-out: NP from HP CFDA EC50
From the text: as §1, §2

Hippocampal Cultures [4] = assay: Neuroprotection from glutamate (excitotoxicity), propidium iodide assay; format: cell-based; details: Rattus norvegicus, read-out: NP from Glutamate PI EC50
From the text: as §1, §2

mice = assay: Maximal Electroshock Test (anti-seizure test); format: in vivo
From the text: Seizure-related assays, Maximal electroshock test: The most definitive assay for antiseizure activity is the maximal electroshock (MES) test (Swinyard, E. A. Laboratory evaluation of antiepileptic drugs: review of laboratory methods, Epilepsia, 1969, 10, 107-119.). […] With both rodent assays, the duration of action is of high importance as well as the potency of the response.

[5] = 30 μM glutamate, hippocampal cultures, CFDA (neuronal viability)
[6] = 10 μM hydrogen peroxide, hippocampal cultures, propidium iodide (cell death)
[7] = 10 μM hydrogen peroxide, hippocampal cultures, CFDA (neuronal viability)
[8] = 30 μM glutamate, hippocampal cultures, propidium iodide (cell death)

| Structure (SMILES) | EC50 (Hippocampal Cultures [1]; [5]) | EC50 (Hippocampal Cultures [2]; [6]) | EC50 (Hippocampal Cultures [3]; [7]) | EC50 (Hippocampal Cultures [4]; [8]) | MES Duration (mice; no dose given) | EC50 (Hippocampal Cultures [1]) | EC50 (Hippocampal Cultures [2]) | EC50 (Hippocampal Cultures [3]) | EC50 (Hippocampal Cultures [4]) | MES Duration (mice; at 100 mg/kg) |
| --- | --- | --- | --- | --- | --- | --- | --- | --- | --- | --- |
| NS(=O)(=O)NCCC(O)c1ccc(F)cc1Cl (stereo not drawn) [Example 8, N-[3-(2-Chloro-4-fluoro-phenyl)-3-hydroxy-propyl]-sulfamide] | > 300 µM | > 300 µM | > 300 µM | 10 µM | – | – | – | – | – | – |
| NS(=O)(=O)NCCC(O)c1ccccc1Cl (stereo not drawn) [Example 1, 3-(2-Chloro-phenyl)-3-hydroxypropyl-1-sulfamide] | 0.1 µM | 1 µM | 30 µM | 0.1 µM | 2 h | – | – | – | – | – |
| CC(O)(CCNS(N)(=O)=O)c1ccccc1Cl (stereo not drawn) [Example 3, 3-(2-Chloro-phenyl)-3-hydroxybutanyl-1-sulfamide] | – | – | – | – | – | > 300 µM | > 300 µM | 300 µM | > 300 µM | – |
| NS(=O)(=O)NCCC(O)c1ccccc1[N+](=O)[O-] (stereo not drawn) [Example 21, 3-(2-Nitro-phenyl)-3-hydroxypropyl-1-sulfamide] | – | – | – | – | – | > 300 µM | – | – | 10 µM | – |
| NS(=O)(=O)NCCC(O)c1ccccc1C(F)(F)F (stereo not drawn) [Example 20, 3-(2-Trifluoromethyl-phenyl)-3-hydroxypropyl-1-sulfamide] | – | – | – | – | – | > 300 µM | – | – | > 300 µM | – |
| NS(=O)(=O)NCCC(O)c1ccccc1-c1cncc(Cl)c1 (stereo not drawn) [Example 24, 3-[2-(5-Chloro-pyridine-3-yl)-phenyl]-3-hydroxypropyl-1-sulfamide] | 10 µM | – | – | > 300 µM | – | – | – | – | – | – |
| NS(=O)(=O)NCC[C@H](O)c1ccccc1F [Example 15, (S)-3-(2-Fluoro-phenyl)-3-hydroxypropyl-1-sulfamide] | – | – | – | – | – | 0.01 µM | 0.001 µM | 0.001 µM | 0.01 µM | 4 hrs at 100 mg/kg |
| NS(=O)(=O)NCC[C@H](O)c1ccccc1Cl [Example 18, (S)-3-(2-Chloro-phenyl)-3-hydroxypropyl-1-sulfamide] | 1 µM | 0.001 µM | 0.001 µM | 0.1 µM | – | – | – | – | – | – |
| CC(C)(CNS(N)(=O)=O)C(O)c1ccccc1F (stereo not drawn) [Example 5, 3-(2-Fluoro-phenyl)-3-hydroxy-2,2-dimethylpropyl-1-sulfamide] | – | – | – | – | – | 0.1 µM | > 300 µM | > 300 µM | 0.1 µM | – |
| NS(=O)(=O)NCCC(O)c1csc2ccccc12 (stereo not drawn) [Example 2, 3-Benzo[b]thiophen-3-yl-3-hydroxypropyl-1-sulfamide] | – | – | – | – | – | 100 µM | 30 µM | 3 µM | 3 µM | – |
| NS(=O)(=O)NCCC(O)c1ccccc1F (stereo not drawn) [Example 6, 3-(2-Fluoro-phenyl)-3-hydroxypropyl-1-sulfamide] | 1 µM | 0.01 µM | 0.01 µM | 0.1 µM | – | – | – | – | – | 4 hr at 100 mg/kg |
| CCc1ccccc1C(O)CCNS(N)(=O)=O (stereo not drawn) [Example 12, 3-(2-Ethyl-phenyl)-3-hydroxypropyl-1-sulfamide] | 0.01 µM | 0.01 µM | > 300 µM | 10 µM | – | – | – | – | – | – |
